According to patent US20160067211A1, “PHARMACEUTICAL COMPOSITION” (Eberhard Karls Universitaet Tuebingen Medizinische Fakultaet, priority 2013, published 2016):

What was measured:
SK-MEL-28 melanoma cells [1] = assay: Real time cell monitoring assay (xCELLigence), SK-MEL-28; assay type: cell-based, human; details: SK-MEL-28, 20, 50 and 100 μM, 104 hours, vs. control
Procedure: FIG. 5: real time cell monitoring of BLM and SK-MEL-28 melanoma cells treated with 6-PN and 8-PN. (A) BML and SK-MEL-28 cells were treated 24 hours after seeding with different concentrations of 6-PN and 8-PN (20 μM, 50 μM and 100 μM) over a 104 hour time period. The cellular impedance was measured over the entire observation time using the xCELLigence™ SP system and is depicted by the cell index (CI). All CI-values were normalized shortly before the treatment started. […] As a positive control, Triton X-100 0.1% was used to induce cell death. Shown are the mean±SD of three independent experiments, each performed in triplicates (B, C). […]
The human melanoma cell lines BLM and SK-MEL-28 (2.5×10^3 cells/well) were seeded in 96 well plates. The cells were treated after 24 hours with different concentrations of 6-PN or 8-PN (20 μM, 50 μM and 100 μM) and monitored by measurements of electrical impedance in 15 minutes intervals for an overall time span of in total 104 hours using the xCELLigencer® SP Systems (Roche Applied Science). The cell index values were calculated using the RTCA software (1.0.0.0805). […]
The human metastatic melanoma cell lines BLM and SK-MEL-28 were treated once with rising concentrations of 6-PN or 8-PN (20 μM, 50 μM and 100 μM) and monitored continuously for an overall time span of 104 hours using a real time monitoring assay (FIG. 5A). […]

HT-29 colon cancer cells = assay: MUH proliferation assay, HT-29; assay type: cell-based; details: rising concentrations 0.1 μM to 100 μM, 48 hours
Procedure: FIG. 6: 6-PN and 8-PN inhibit the growth of MCF-7 and HT-29. (A, B) MUH proliferation assay of HT-29 colon cancer cells and MCF-7 breast cancel cells treated with increasing concentrations of 6-PN and 8-PN (0.1 μM to 100 μM) for 48 hours. Shown are the mean±S.A.; the experiments were performed in quadruplicates.
The cells were seeded in triplicates in 96-well plates at a density of 2,500 cells per well in 50 μl medium (5×10^4 cells per milliliter). After 24 hours, the medium was replaced by medium containing 6-PN, 8-PN (dissolved in DMSO), TSA (dissolved in EtOH) or SAHA (dissolved in DMSO) at the concentrations to be tested with or without the addition of the necrosis inhibitor IM-54 at 5 μM (Calbiochem, Darmstadt, Germany). Cells treated with culture medium without or with DMSO served as controls. The assay was started following an incubation of 24 hours. The medium was discarded, each well was washed two times with PBS (without Ca^++ and Mg^++) and 100 μl of a solution containing […] of 4-methyl umbellipheryl heptanoate per ml PBS was added. Plates were incubated at 37° C. for 1 hour and measured in a Fluoroskan II (Lab Systems, Helsinki, Finland) with a […]. The intensity of fluorescence indicates the number of viable cells in the wells. […]

[2] = tested on: foreskin melanocytes (HEM1); assay: MUH proliferation assay, melanocytes; assay type: cell-based; details: 6-PN, 8-PN at higher concentrations (0.1 μM to 100 μM tested); TSA, SAHA 100 μM
Procedure: FIG. 5: real time cell monitoring of BLM and SK-MEL-28 melanoma cells treated with 6-PN and 8-PN. (A) BML and SK-MEL-28 cells were treated 24 hours after seeding with different concentrations of 6-PN and 8-PN (20 μM, 50 μM and 100 μM) over a 104 hour time period. The cellular impedance was measured over the entire observation time using the xCELLigence™ SP system and is depicted by the cell index (CI). All CI-values were normalized shortly before the treatment started. […] As a positive control, Triton X-100 0.1% was used to induce cell death. Shown are the mean±SD of three independent experiments, each performed in triplicates (B, C). […] Shown are the mean±SD; the experiments were performed in quadruplicates. (D) The MUH proliferation assay was repeated unter the same treatment conditions on primary human fibroblasts (FF868) and melanocytes (HEM1).
The cells were seeded in triplicates in 96-well plates at a density of 2,500 cells per well in 50 μl medium (5×10^4 cells per milliliter). After 24 hours, the medium was replaced by medium containing 6-PN, 8-PN (dissolved in DMSO), TSA (dissolved in EtOH) or SAHA (dissolved in DMSO) at the concentrations to be tested with or without the addition of the necrosis inhibitor IM-54 at 5 μM (Calbiochem, Darmstadt, Germany). Cells treated with culture medium without or with DMSO served as controls. The assay was started following an incubation of 24 hours. […] Plates were incubated at 37° C. for 1 hour and measured in a Fluoroskan II (Lab Systems, Helsinki, Finland) with a […]. The intensity of fluorescence indicates the number of viable cells in the wells.
Next it was asked whether the PNs also influence the proliferation of benign cells. To this end, human fibroblasts (FF) and foreskin melanocytes (HEM1) were treated with the same concentrations of 6-PN and 8-PN, and proliferation was assessed using the proliferation assay as described above.

SK-MEL-28 melanoma cells [3] = assay: FACS cell cycle analysis (PI), SK-MEL-28; assay type: cell-based, human; details: SK-MEL-28, 100 μM, 48 hours
Procedure: (§1) (A) Cell cycle FACS analyses of PI stained BLM and SK-MEL-28 melanoma cells. 100 μM of 8-PN-induced a G2 arrest in both cells. (B) FACS analyses of BLM and SK-MEL-28 melanoma cells treated with 100 μM 6-PN or 8-PN and stained for annexin V/PI; staurosporin was used as control for apoptosis induction and DMSO as vehicle control. […] (C) BLM and SK-MEL-28 melanoma cells were treated with 100 μM of PNs; TSA, SAHA and EMSO were used as controls.
(§2) To further analyze the possibility of apoptosis induction, an extensive apoptosis assay was performed on SK-MEL-28 melanoma cells 4 hours after treatment with 100 μM 6-PN or 8-PN (FIG. 9). […] This was verified by FACS cell cycle analyses to screen for a possible increase of the sub-G1 fraction of cells (apoptotic cells) or for the induction of a G2 arrest (inhibition of proliferation). […] To further differentiate between the induction of apoptosis and/or necrosis an PI/Annexin V staining of SK-MEL-28 and BLM cells was performed 4 hours and 24 hours after the treatment with 6-PN or 8-PN; 10 μM staurosporin (6 hours treatment) was used as positive control for the induction of apoptosis; DMSO treatment was used as vehicle control. The cells were then analyzed by FACS.

SK-MEL-28 melanoma cells [4] = assay: PI/Annexin V staining FACS, SK-MEL-28; assay type: cell-based, human; details: SK-MEL-28, 100 μM; for annexin V positive (apoptotic) cells: DMSO control 2.5%; for PI positive (nectrotic) cells: DMSO control 7.9%
Procedure: as §1, §2

angiogenesis = details: chorioallantois membrane assays in vivo; cited from earlier work
MRP1 = MRP1 (Homo sapiens, UniProt P33527); details: cited from earlier work
Chain of MRP1 (P33527 whole entry): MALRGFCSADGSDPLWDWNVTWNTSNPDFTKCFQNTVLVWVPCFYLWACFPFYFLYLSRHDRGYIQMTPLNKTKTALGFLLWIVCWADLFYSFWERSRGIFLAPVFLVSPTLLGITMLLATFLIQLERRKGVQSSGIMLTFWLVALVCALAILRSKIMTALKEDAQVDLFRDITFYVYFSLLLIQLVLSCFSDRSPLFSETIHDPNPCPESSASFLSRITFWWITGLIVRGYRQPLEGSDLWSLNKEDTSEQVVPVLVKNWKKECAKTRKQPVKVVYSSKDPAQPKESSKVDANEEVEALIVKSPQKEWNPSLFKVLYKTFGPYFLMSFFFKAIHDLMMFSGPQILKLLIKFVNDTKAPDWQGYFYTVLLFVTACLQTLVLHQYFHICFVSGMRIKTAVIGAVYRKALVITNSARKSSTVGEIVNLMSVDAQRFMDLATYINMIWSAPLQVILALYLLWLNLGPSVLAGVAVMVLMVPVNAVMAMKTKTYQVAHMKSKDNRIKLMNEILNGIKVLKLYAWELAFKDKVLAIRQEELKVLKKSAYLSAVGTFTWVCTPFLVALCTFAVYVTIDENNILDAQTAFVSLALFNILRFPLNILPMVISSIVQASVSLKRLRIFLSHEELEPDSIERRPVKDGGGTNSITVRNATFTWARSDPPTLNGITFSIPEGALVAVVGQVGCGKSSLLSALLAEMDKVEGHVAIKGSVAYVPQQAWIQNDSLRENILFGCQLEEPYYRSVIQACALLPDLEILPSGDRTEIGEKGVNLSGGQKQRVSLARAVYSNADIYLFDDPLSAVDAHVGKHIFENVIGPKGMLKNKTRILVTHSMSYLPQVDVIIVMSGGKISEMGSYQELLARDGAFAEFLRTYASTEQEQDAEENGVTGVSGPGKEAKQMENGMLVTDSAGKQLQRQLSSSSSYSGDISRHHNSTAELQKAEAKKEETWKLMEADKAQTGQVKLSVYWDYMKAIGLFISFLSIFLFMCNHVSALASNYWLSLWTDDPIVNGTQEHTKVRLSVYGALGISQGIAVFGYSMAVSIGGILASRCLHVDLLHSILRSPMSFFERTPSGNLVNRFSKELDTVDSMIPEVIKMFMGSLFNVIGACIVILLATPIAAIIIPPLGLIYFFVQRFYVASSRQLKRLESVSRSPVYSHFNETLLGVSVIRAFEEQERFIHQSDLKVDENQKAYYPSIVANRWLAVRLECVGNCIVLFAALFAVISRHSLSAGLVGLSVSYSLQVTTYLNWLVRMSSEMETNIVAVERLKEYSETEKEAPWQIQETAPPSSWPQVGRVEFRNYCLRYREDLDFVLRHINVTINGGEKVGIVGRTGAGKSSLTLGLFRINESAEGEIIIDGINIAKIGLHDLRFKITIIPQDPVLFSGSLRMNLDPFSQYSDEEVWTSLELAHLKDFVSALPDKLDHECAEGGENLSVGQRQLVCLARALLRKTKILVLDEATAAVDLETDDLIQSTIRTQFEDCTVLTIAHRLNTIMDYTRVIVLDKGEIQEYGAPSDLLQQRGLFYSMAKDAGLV

[5] = tested on: breast cancer cells MCF-7; details: cited from earlier work

## CC(C)=CCc1c(O)cc(O)c2c1OC(c1ccc(O)cc1)CC2=O (stereo not drawn) [8-PN, 5,7-Dihydroxy-2-(4-hydroxy-phenyl)-8-(3-methyl-but-2-enyl)-chroman-4-one]
SK-MEL-28 melanoma cells [1]
  normalized cell index (CI): descended over time
HT-29 colon cancer cells
  cell proliferation: severe reduction
[2]
  melanocyte proliferation: markedly decreased
SK-MEL-28 melanoma cells [3]
  sub-G1 fraction (apoptotic cells): remained unaffected
SK-MEL-28 melanoma cells [3]; DMSO control 20.1%
  cells in the G2 phase: 49.8%
SK-MEL-28 melanoma cells [4]; 4 hours
  annexin V positive (apoptotic) cells: 0.2%
  PI positive (nectrotic) cells: 29.9%
SK-MEL-28 melanoma cells [4]; 24 hours
  annexin V positive (apoptotic) cells: 0.5%
  PI positive (nectrotic) cells: 58.2%
angiogenesis
  angiogenesis: inhibits the angiogenesis
MRP1
  inhibition of MRP1: inhibition
[5]
  effects on breast cancer cells compared with 17β-Estradiol: imitates the effects of 17β-Estradiol
